Among the data in patent US11529344B2, “EZH2 inhibitor combination therapies” (Pfizer Inc., priority 2017, dated 2022) are inhibition and SLFN11 protein expression values, retold here.

For experiment [1], the system named is H3K27Me2 in DMS114 tumors. The experiment can be described thus: H3K27Me2 ELISA on histones of DMS114 xenograft tumors. It is filed as in vivo, female NOD/SCID mice. The conditions noted are these: Mus musculus, DMS-114, 1320 h; 300 mg/kg BID, tumors harvested at Day 55; read-out: maximum inhibition of H3K27Me2 in tumor samples. The method, then:
(§1) Extracts were aliquoted and stored at −20° C. (short term) or −80° C. (long term). […] Data was analyzed using GraphPad Prism version 7.02.
(§2) The in vivo activity of Compound 1 against EZH2 in the DMS114 SCLC xenograft model was determined by measurement of the relative amount of cellular H3K27Me3 and Me2 levels with ELISA using the tumor tissue samples harvested at Day 55 from the study described in Example 3 above.

Experiment [2] deals with SLFN11 expression in SCLC cell lines. The experiment can be described thus: SLFN11 western blotting. The class given is cell-based. The conditions noted are these: 500 nM for 7 days, several SCLC cell lines. Here is the method: SCLC cell lines were treated with 500 nM of Compound 1 in DMSO for 7 days and changes in SLFN11 protein levels were then assessed using western blotting. After drug treatment, cells were trypsized (adherent cells), harvested by centrifugation at 2000 rpm at room temperature, washed with PBS, followed by collection of cell pellets by centrifugation. Cell pellets were re-suspended in appropriate volume of RIPA buffer (Sigma; Catalogue #R0278; 100 ul per 5-10×10^5 cells), incubated on ice for 10-15 min, centrifuged at 12,000 g and 4° C. for 10 min and then supernatant was collected. 15 ug of total protein lysates was run on 4-12% NuPAGE™ Bis-Tris protein gel (NP0336Box) in 1×NuPAGE™ MOPS SDS Running Buffer (NP0001). Gels were run on ice at 80V for 20 minutes and then 150V for 60 minutes. […] The signal was detected using the ECL system (Thermo-34078 and -34096) and imaged on the ImageQuant LAS400 imager.
To understand the potential mechanisms responsible for EZH2i synergy observed with chemotherapy agents, we assessed the effects of Compound 1 treatment on SLFN11 expression, a sensitizer to DNA damaging agents. Several SCLC cell lines were treated with 500 nM of Compound 1 for 7 days and changes in SLFN11 protein levels were assessed using western blotting according to the methodology described above.
A general note: A western blot detects proteins with antibodies after separation by electrophoresis.

In experiment [3] the test system is H3K27Me3 in DMS114 tumors. Description: H3K27Me3 ELISA on histones of DMS114 xenograft tumors. It is filed as in vivo, female NOD/SCID mice. The conditions noted are these: Mus musculus, DMS-114, 1320 h; 300 mg/kg BID, tumors harvested at Day 55; read-out: maximum inhibition of H3K27Me3 in tumor samples. The method, then: as §1, §2
A general note: In an ELISA, binding on a coated surface is turned into a signal by an enzyme label.

The structures appear in SMILES notation.

Regarding `COc1cc(C)[nH]c(=O)c1CN1CCc2c(Cl)cc([C@H](OC)C3COC3)c(Cl)c2C1=O` [Compound 1, 5,8-dichloro-2-[(4-methoxy-6-methyl-2-oxo-1,2-dihydro-pyridin-3-yl)methyl]-7-[(R)-methoxy(oxetan-3-yl)methyl]-3,4-dihydroisoquinolin-1(2H)-one], the inhibition at 300 mg/kg is 82% in experiment [1] and 96% in experiment [3]. Further, in experiment [2], the SLFN11 protein expression result is listed as “strong induction of SLFN11 expression”.

The term inhibition denotes the drop in the measured response relative to a control, in per cent.
